PMC3650853 (Journal of medicinal chemistry, 2010)

How the values were obtained:
[1] = target: mouse CB2 (mCB2) (Mus musculus, UniProt P47936); test: Radioligand binding, displacement of [3H]CP-55,940 from mouse spleen membranes; conditions: for lower affinity for CB2 compared to 6b: mCB2 Ki relative to 6b
[2] = target: rat CB1 (rCB1) (Rattus norvegicus, UniProt P20272); format: binding
[3] = target: rCB1 receptor (Rattus norvegicus, UniProt P20272); format: cell-based
[4] = system: rats; test: Hypothermia test, core body temperature over 6 hours after injection; format: in vivo; conditions: rat, 0.1 mg/kg s.c.
[5] = system: rats; test: Antinociception, tail-flick procedure over 6 hours after injection; conditions: rat
[6] = six-atom versus seven-atom ω-bromo side chain

Sequence of mouse CB2 (mCB2) (P47936 whole entry): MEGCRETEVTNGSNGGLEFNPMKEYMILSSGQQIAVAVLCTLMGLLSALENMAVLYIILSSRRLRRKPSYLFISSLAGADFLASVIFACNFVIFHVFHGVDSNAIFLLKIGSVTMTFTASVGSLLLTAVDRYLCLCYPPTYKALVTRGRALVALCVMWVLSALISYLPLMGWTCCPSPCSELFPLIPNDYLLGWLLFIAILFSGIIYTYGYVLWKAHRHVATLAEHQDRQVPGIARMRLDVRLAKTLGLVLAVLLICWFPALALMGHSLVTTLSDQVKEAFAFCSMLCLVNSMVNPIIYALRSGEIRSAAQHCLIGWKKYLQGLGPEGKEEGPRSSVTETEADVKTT
Sequence of rat CB1 (rCB1) (P20272 whole entry): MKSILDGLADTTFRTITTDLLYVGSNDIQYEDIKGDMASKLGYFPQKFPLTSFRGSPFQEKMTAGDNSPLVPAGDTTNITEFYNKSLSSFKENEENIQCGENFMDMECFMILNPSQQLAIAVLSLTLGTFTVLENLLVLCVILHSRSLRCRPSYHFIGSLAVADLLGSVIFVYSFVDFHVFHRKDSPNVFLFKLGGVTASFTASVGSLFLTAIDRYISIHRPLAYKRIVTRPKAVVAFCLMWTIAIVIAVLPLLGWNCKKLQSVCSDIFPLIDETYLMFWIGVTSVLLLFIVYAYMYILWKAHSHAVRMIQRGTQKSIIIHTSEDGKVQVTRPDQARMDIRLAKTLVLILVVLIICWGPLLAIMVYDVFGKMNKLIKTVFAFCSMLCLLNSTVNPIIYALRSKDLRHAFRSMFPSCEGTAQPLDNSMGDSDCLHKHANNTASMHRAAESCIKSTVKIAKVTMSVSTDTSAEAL
Sequence of rCB1 receptor (P20272 whole entry): as above

With `CCCC/C=C\C1(c2cc(O)c3c(c2)OC(C)(C)[C@@H]2CCC(=O)C[C@@H]32)CCCC1` [6a, (6aR, 10aR)-3-[1-(1,2-cis-Hexen-1-yl)-cyclopent-1-yl]-6,6a,7,8,10,10a-hexahydro-1-hydroxy-6,6-dimethyl-9H-dibenzo[b,d]pyran-9-one] as the molecule, how does the “lower affinity for CB2 compared to 6b” value [1] read?
Its value is 5 fold.

With `CCCCCCC1(c2cc(O)c3c(c2)OC(C)(C)[C@@H]2CCC(=O)C[C@@H]32)SCCS1` [6c, (6aR, 10aR)-3-(2-Hexyl-1,3-dithiolan-2-yl)-6,6a,7,8,10,10a-hexahydro-1-hydroxy-6,6-dimethyl-9H-dibenzo[b,d]pyran-9-one] as the molecule, how does the “lower affinity for CB1 compared to 6b” value ([2]; rCB1 Ki relative to 6b) read?
The value was 4 fold.

What about the “lower affinity for CB2 compared to 6b” value [1] of the same molecule?
Its value is 44 fold.

How did the “selectivity for CB1 over CB2” value ([2]; from Ki rCB1 and mCB2, as stated in text) turn out when `CCCC/C=C\C1(c2cc(O)c3c(c2)OC(C)(C)[C@@H]2CCC(=O)C[C@@H]32)CCC1` [6d, (6aR, 10aR)-3-[1-(1,2-cis-Hexen-1-yl)-cyclobut-1-yl]-6,6a,7,8,10,10a-hexahydro-1-hydroxy-6,6-dimethyl-9H-dibenzo[b,d]pyran-9-one] was run?
Its value is 11 fold.

For `CCCCCCC1(c2cc(O)c3c(c2)OC(C)(C)[C@@H]2CC[C@@H](O)C[C@@H]32)CCC1` [7e-β, (6aR, 9R, 10aR)-3-(1-Hexyl-cyclobut-1-yl)-6a,7,8,9,10,10a-hexahydro-6,6-dimethyl-6H-dibenzo[b,d]pyran-1,9 diol], which EC50 [3] is on record?
The EC50 was 1.5 ± 0.3 nM.

And the “functional efficacy at CB1” value ([3]; cAMP assay)?
Its value is “full agonist”.

What about the “onset of drug effect (hypothermia) after injection” value [4] of the same molecule?
The value was 60 to 90 min.

What about the “time of peak effects (hypothermia) after injection” value [4] of the same molecule?
The value was 300 min.

And the “reduction of core body temperature” value ([4]; from average baseline of 38.48±0.06°C)?
The value was “up to 4.2±0.5 °C”.

What about the “antinociception, % of the maximum possible effect” value (shortened to “antinociception, %”) ([5]; 0.1 mg/kg 7e-β after 30-min pretreatment with 1.0 mg/kg rimonabant (SR141716A)) of the same molecule?
Its value is 85.4±5.8%.

And the “antinociception, %” value ([5]; 0.1 mg/kg 7e-β after 30-min pretreatment with 3.0 mg/kg rimonabant (SR141716A))?
The value was 48.0±10.9%.

What about the “antinociception, %” value ([5]; 0.1 mg/kg 7e-β alone, different group of animals) of the same molecule?
Its value is 100%.

What about the “doses with significant antinociceptive effects” value ([5]; s.c., tail-flick) of the same molecule?
Its value is 0.01 to 0.3 mg/kg.

And the “onset of the antinociceptive effects after injection” value ([5]; s.c., tail-flick)?
The value was 60 to 120 min.

And the “time course of antinociceptive effects” value ([5]; s.c., tail-flick, 6 hour test period)?
Its value is “generally increased over the 6 hour test period”.

For `CC1(C)Oc2cc(C3(CCCCBr)CCCC3)cc(O)c2[C@@H]2CC(=O)CC[C@H]21` [15a, (6aR,10aR)-3-[1-(4-Bromobutyl)cyclopentyl]-6,6a,7,8,10,10a-hexahydro-1-hydroxy-6,6-dimethyl-9H-dibenzo[b,d]pyran-9-one], which “reduction in affinity for CB1” value [2, 6] is on record?
The value was 13 fold.

What about the “reduction in affinity for CB2” value [1, 6] of the same molecule?
Its value is 5 fold.

Which “time after injection by which antinociceptive effects were decreasing” value ([5]; s.c., tail-flick) does the source give for `CN1CC[C@]23c4c5ccc(O)c4O[C@H]2[C@@H](O)C=C[C@H]3[C@H]1C5` [morphine, reference compound] here?
Its value is 3 h.

And the “time of peak antinociceptive effects after injection” value ([5]; s.c., tail-flick)?
The value was 30 to 120 min.

What about the “antinociceptive effects lower than 7e-β” value ([5]; tail-flick, relative to 7e-β) of the same molecule?
The value was “approximately 100 fold”.
